Where only a bound is given, the exact number is not on record here.

Drawing on ChEMBL document CHEMBL3779836, “Inhibition of Histone Demethylases Offers a Novel and Promising Approach for the Treatment of Cancer and Other Diseases” (ACS Med Chem Lett, 2016), this text covers IC50 for 6 compounds.

Assay [1] concerns the target Histone lysine demethylase PHF8 (Homo sapiens, UniProt Q9UPP1). Kind of assay: Inhibition of human PHF8 preincubated for 10 mins followed by substrate addition by AlphaLISA assay.
The target of assay [2] is Lysine-specific demethylase 5B (Homo sapiens, UniProt Q9UGL1). Kind of assay: Inhibition of human KDM5B preincubated for 10 mins followed by substrate addition by AlphaLISA assay. (Alpha assays give light when donor and acceptor beads are brought close together.)
The target of assay [3] is T1, Lysine-specific demethylase 4C (Homo sapiens, UniProt Q9H3R0).
T1 sequence (Q9H3R0 whole entry): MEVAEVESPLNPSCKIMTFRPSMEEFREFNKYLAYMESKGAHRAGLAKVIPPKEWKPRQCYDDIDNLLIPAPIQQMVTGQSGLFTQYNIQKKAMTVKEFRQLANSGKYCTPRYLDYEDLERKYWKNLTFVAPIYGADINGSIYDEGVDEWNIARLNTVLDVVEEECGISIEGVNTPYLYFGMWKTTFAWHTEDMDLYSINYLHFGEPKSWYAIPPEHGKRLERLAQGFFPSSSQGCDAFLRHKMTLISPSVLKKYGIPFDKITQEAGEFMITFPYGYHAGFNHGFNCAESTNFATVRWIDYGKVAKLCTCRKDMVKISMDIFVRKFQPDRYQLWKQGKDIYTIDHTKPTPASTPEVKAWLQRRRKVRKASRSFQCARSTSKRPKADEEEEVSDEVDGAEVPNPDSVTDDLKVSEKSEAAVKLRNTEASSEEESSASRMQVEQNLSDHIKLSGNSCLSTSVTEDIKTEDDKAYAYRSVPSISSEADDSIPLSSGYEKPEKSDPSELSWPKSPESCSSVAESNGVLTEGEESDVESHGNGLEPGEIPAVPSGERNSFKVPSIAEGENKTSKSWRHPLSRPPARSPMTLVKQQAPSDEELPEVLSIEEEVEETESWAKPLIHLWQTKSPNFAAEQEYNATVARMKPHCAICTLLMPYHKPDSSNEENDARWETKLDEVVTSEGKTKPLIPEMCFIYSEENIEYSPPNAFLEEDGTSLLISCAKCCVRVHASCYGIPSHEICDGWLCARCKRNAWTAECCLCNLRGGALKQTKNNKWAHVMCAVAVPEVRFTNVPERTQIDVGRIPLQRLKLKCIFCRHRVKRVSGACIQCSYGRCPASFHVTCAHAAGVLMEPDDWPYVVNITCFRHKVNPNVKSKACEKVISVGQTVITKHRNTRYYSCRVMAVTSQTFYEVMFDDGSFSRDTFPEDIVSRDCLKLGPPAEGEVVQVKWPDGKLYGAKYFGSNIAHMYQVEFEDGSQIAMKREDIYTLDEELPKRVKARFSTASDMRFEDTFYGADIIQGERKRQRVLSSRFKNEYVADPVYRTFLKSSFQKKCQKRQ
Kind of assay: Inhibition of human KDM4C preincubated for 10 mins followed by substrate addition by AlphaLISA assay.

Assay [4] deals with T2, Lysine-specific demethylase 2B (Homo sapiens, UniProt Q8NHM5).
T2 sequence (Q8NHM5 whole entry): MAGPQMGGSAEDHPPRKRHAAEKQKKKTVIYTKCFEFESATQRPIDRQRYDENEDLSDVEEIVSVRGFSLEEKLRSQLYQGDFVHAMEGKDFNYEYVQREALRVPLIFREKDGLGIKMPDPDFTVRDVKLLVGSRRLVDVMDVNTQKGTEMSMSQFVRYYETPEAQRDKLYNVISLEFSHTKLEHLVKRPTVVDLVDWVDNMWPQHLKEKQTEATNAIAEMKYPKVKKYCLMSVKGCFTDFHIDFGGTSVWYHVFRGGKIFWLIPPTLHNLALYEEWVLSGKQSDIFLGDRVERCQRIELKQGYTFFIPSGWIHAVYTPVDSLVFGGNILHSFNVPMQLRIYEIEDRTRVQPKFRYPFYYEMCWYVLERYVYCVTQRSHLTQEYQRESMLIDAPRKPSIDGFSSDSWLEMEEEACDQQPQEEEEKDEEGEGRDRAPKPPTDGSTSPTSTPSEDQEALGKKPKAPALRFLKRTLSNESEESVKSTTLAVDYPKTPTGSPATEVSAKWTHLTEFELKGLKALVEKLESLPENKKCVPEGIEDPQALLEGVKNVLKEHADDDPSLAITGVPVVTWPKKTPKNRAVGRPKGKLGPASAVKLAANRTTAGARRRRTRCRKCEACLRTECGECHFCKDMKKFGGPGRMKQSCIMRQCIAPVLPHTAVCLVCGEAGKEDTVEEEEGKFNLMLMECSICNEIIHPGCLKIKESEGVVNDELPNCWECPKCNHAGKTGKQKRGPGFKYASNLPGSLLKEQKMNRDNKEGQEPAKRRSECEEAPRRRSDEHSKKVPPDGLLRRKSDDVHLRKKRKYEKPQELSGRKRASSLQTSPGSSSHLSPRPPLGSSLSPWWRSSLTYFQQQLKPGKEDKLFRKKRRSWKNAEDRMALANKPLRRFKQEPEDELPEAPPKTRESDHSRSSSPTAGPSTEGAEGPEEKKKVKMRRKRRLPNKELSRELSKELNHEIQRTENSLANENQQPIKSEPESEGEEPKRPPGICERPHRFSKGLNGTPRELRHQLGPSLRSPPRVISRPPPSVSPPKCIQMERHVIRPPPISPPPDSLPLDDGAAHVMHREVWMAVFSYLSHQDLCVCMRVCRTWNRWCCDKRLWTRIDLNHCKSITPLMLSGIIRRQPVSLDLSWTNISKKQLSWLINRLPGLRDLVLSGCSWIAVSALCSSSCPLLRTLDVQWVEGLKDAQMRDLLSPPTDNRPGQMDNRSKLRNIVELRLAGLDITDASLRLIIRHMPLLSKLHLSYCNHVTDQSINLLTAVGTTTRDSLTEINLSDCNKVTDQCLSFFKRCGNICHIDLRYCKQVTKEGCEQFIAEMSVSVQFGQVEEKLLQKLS
Kind of assay: Inhibition of human KDM2B preincubated for 10 mins followed by substrate addition by AlphaLISA assay.

The target of assay [5] is Lysine-specific demethylase 6A (Homo sapiens, UniProt O15550). The assay is described as follows: Inhibition of human KDM6A preincubated for 10 mins followed by substrate addition by AlphaLISA assay.
Chain of Lysine-specific demethylase 6A (O15550 whole entry): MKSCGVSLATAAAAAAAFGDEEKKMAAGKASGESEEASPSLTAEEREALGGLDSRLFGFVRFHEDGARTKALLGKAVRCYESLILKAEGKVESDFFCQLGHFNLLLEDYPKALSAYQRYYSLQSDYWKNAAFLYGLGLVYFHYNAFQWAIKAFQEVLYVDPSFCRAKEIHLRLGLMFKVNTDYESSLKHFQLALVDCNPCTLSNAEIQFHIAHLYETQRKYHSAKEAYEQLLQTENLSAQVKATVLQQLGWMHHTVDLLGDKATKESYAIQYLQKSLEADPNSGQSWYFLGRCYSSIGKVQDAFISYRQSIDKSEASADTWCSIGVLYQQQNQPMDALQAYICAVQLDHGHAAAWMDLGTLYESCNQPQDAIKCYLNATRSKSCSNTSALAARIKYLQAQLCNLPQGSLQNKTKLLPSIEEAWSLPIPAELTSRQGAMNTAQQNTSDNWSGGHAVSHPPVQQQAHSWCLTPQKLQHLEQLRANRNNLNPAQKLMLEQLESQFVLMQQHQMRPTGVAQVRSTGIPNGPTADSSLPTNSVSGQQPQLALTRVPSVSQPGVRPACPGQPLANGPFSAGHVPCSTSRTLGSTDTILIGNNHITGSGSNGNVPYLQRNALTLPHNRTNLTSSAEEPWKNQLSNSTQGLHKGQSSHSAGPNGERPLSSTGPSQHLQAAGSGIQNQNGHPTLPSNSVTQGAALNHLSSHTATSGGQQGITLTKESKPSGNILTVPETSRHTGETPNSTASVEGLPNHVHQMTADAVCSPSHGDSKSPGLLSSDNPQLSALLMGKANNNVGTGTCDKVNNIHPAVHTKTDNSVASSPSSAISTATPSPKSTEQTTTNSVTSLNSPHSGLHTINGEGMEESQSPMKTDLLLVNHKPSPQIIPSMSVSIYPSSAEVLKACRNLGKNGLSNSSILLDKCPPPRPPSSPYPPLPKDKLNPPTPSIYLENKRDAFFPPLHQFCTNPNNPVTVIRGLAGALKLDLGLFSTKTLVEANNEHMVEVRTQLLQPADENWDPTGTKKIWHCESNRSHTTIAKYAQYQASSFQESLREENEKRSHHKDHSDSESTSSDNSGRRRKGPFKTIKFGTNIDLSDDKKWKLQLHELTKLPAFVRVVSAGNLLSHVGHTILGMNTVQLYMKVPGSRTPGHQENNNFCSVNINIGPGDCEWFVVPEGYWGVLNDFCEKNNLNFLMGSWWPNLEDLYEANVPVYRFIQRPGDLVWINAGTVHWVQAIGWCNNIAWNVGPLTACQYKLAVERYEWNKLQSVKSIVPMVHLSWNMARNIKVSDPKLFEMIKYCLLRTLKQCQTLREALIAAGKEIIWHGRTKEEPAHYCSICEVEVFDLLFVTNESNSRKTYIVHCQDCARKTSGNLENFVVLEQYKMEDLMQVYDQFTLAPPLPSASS

Chain of Lysine-specific demethylase 5B (Q9UGL1 whole entry): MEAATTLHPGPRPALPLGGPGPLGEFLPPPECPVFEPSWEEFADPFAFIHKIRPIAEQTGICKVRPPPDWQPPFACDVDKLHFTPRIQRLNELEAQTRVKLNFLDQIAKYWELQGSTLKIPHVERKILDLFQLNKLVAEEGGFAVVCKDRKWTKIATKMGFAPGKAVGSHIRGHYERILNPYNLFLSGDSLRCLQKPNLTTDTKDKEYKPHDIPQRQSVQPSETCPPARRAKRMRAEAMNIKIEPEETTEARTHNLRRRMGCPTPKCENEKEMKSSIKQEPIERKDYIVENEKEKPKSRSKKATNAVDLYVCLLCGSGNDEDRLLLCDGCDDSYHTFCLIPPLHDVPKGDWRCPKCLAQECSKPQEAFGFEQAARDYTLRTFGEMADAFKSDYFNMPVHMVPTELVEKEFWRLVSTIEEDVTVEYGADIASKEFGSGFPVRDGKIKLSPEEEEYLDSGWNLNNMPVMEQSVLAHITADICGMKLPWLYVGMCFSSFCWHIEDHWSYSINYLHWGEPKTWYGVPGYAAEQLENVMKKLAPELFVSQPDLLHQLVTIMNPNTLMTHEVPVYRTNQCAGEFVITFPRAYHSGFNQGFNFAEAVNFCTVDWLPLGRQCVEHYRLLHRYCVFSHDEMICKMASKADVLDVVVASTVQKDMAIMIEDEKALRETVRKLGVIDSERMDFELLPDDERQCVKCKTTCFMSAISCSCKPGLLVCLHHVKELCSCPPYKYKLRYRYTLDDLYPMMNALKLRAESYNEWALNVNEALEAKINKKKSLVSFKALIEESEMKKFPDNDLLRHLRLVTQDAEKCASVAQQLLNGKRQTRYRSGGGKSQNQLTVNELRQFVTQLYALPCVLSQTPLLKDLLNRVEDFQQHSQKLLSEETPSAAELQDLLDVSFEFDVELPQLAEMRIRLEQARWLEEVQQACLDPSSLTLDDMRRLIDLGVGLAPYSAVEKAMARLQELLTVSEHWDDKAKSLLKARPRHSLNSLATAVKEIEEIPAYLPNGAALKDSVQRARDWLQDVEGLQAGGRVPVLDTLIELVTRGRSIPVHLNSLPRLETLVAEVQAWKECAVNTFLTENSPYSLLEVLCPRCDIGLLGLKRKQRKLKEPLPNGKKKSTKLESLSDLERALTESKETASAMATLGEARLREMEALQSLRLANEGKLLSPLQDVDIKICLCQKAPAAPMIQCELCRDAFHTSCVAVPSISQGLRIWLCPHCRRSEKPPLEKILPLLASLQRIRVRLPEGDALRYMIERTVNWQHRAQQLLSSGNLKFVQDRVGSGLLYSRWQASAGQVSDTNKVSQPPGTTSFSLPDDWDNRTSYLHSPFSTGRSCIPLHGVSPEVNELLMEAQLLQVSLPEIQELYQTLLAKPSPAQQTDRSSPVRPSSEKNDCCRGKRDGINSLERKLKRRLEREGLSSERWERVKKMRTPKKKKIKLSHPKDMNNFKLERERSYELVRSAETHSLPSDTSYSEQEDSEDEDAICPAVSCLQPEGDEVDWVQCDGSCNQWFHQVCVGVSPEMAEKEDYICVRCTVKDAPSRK
Chain of Histone lysine demethylase PHF8 (Q9UPP1 whole entry): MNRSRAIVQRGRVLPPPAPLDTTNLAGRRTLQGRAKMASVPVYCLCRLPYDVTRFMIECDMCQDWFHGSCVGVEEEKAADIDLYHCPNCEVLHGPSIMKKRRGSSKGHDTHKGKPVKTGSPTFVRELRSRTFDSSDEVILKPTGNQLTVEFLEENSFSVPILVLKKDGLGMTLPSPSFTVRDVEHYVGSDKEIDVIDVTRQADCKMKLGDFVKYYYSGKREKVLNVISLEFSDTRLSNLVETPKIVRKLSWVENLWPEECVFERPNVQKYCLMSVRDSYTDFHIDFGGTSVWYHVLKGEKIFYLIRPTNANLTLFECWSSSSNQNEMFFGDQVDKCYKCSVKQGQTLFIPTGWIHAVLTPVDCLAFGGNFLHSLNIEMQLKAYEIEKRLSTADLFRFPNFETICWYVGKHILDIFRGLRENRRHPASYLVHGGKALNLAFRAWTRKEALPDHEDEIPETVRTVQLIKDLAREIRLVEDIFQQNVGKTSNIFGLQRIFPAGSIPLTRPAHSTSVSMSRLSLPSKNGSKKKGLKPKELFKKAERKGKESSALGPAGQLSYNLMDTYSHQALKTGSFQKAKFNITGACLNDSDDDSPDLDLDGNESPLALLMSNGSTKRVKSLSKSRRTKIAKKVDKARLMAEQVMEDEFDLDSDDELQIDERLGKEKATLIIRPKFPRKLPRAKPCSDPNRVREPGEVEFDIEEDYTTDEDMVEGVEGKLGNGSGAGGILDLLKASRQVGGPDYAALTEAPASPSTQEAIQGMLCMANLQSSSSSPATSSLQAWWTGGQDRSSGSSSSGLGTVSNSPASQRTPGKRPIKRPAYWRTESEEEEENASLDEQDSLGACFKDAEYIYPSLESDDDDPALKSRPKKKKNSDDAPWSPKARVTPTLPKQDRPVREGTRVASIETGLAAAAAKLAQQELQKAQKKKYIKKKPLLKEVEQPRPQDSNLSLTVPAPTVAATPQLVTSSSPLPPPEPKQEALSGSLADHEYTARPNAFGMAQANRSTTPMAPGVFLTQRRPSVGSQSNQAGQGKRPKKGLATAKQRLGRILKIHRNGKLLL

A word on the IC50: it is the point on the concentration scale where inhibition reaches its midpoint. Read a low IC50 as inhibition by little substance. As for `C[C@H](c1ccccc1)N1CCC[C@@H](CNCc2cc(C(=O)O)ccn2)C1=O`, the IC50 in assay [1] is less than 250 nM; in assay [2], less than 250 nM; in assay [3], less than 250 nM; in assay [4], less than 250 nM; in assay [5], more than 2500 nM.

Turning to `Cc1cn2c(n1)CCN(Cc1cc(C(=O)O)ccn1)CC2`, the IC50 is less than 250 nM in assay [1]; less than 250 nM in assay [2]; less than 250 nM in assay [3]; more than 2500 nM in assay [4]; more than 2500 nM in assay [5].

Take `CCN1CCC(CNCc2cc(C(=O)O)ccn2)C1=O` (stereo not given): the IC50 was less than 250 nM in assay [1]; less than 250 nM in assay [2]; less than 250 nM in assay [3]; less than 250 nM in assay [4]; more than 2500 nM in assay [5].

As for `COc1ccc([C@@H](C)N2CCC[C@@H](CNCc3cc(C(=O)O)ccn3)C2=O)cc1`, the IC50 was less than 250 nM in assay [1]; less than 250 nM in assay [2]; less than 250 nM in assay [3]; less than 250 nM in assay [4]; more than 2500 nM in assay [5].

As for `C[C@H](c1ccccc1)N1CC[C@@H](CNCc2cc(C(=O)O)ccn2)C1=O`, the IC50 was less than 250 nM in assay [1]; less than 250 nM in assay [2]; less than 250 nM in assay [3]; less than 250 nM in assay [4]; more than 2500 nM in assay [5].

In the case of `C[C@H](c1ccccc1)N1CCC[C@H](CNCc2cc(C(=O)O)ccn2)C1=O`, the 50% inhibitory concentration (IC50) in assay [1] is less than 250 nM; in assay [2], less than 250 nM; in assay [3] it was less than 250 nM; in assay [4] it was less than 250 nM; in assay [5], more than 2500 nM.
